Experimental data: patent US11253535B2, “Carboline derivatives or phosphorous derivatives for the treatment of muscular myopathies and traumatic injuries to muscles” (Centre National de la Recherche Scientifique (C.N.R.S), priority 2015, dated 2022)

How the values were obtained:
mdx mouse cardiomyocytes = experiment: Spontaneous calcium activity (spikes and calcium waves) of mdx mouse cardiomyocytes; format: cell-based
Excerpt: FIG. 4: Frequency of spontaneous spikes and calcium waves in WT, mdx and mdx/CD38^−/− mouse cardiomyocytes. 1-way-ANOVA test with a Bonferroni correction. Significance level set at 0.05, with a *P<0.05; **P<0.01, ***P<0.001. (A) The spontaneous calcium activity of cardiomyocytes (calcium spikes and waves) of the mdx/CD38^−/− mouse is reduced by 80% compared to the values of mdx mice. (B) The application of the CD38 CZ-27 antagonist to mdx mouse cardiomyocytes reduces the frequency of spikes by about 70%.
Evaluation of the Spontaneous Calcium Activity of Mouse Cardiomyocytes:
In the mdx cardiomyocyte, it was shown that the calcium reserves of the sarcoplasmic reticulum were reduced, probably due to Ca^2+ leakage through RyRs that are abnormally sensitized.
In order to study the impact of the absence of CD38 on these parameters, the different parameters of spontaneous spike activity and calcium waves were studied. […] The increased frequency of these spontaneous calcium events may lead to arrhythmias (when they spread to the whole heart tissue) as well as to a long-term cardiac hypertrophy associated with a change in the Ca^2+-dependent gene expression.
The protective effect of the CD38 deletion in mice was then observed by comparing cardiomyocytes of the double-mutant model with cardiomyocytes of mdx mice. The spontaneous calcium activity of mdx/CD38^−/− cardiomyocytes is very small compared to mdx (spikes and calcium waves, see FIG. 4A). […] CD38 deletion in mdx/CD38^−/− favor its protective role in DMD, with the reversal of many deleterious parameters in mdx mice (spontaneous calcium spikes and waves, sensitization of RyRs).

DMD myotubes = experiment: Spontaneous calcium activity (calcium waves) in DMD patient myotubes, Fluo-4 AM, confocal microscopy; format: cell-based, human; conditions: for reduction in the number of myotubes with spontaneous calcium activity: DMD myotubes preincubated, 100 μM (FIG. 5D, 8D); for reduction in the amplitude of the calcium waves (oscillations): 100 μM
Excerpt: (A) Characterization of spontaneous calcium waves in DMD myotubes. Healthy myotubes mostly show low activity (13% of myotubes), while 49% of untreated DMD myotubes show significant spontaneous calcium activity. The amplitude of calcium oscillations in untreated DMD myotubes is increased by 60% compared with healthy myotubes. (B) Examples of trace recordings of a representative region of interest in myotubes and DMDs. (C) Amplitude of spontaneous calcium oscillations in DMD myotube cultures in the presence of modulators of the CD38 enzyme pathway. […] Similarly, 8-Bromo-cADPR (cADPR antagonist, 100 μM, n=48) and NED-19 (NAADP antagonist, 100 μM, n=167) reduce by 40% the amplitude of calcium oscillations in DMD myotubes. […] The t-test was used with a significance level set at 0.05, with a *P<0.05; **P<0.01, ***P<0.001, n=cell number.
(A) DMD myotubes loaded with a calcium probe (Fluo 4). Examples of trace recordings of a representative region of interest in control DMD myotubes (B) and treated for 30 min with NAADP (100 μM) (C). […] The chi square (proportion of active cells) and t-test (mean peak amplitude) were used with a significance level set at 0.05, with a *P<0.05 ***P<0.001.
In parallel with mouse cardiomyocyte studies, two lines of human skeletal myotubes (a patient cell line with DMD and a control line) were used. Human myotubes are particularly suitable for evaluating a pharmacological tool from a therapy perspective. The inventors first tested the CZ-27, the NED-19 antagonist of NAADP (the most efficient messenger produced by CD38), and 8-bromo-cADP-ribose (a cADP-ribose antagonist produced by CD38. The cells were loaded with Fluo-4 AM and recorded by confocal microscopy.
The amplitude of the calcium waves was reduced by 40% (see FIG. 5A) compared to that of the untreated DMD myotubes. […] A 40% reduction in the amplitude of the calcium waves is also observed when the cells are treated with 100 μM of 8-Bromo-cADPR or NED-19 (see FIG. 5C). When cultures of DMD myotubes were preincubated with NED-19, the number of myotubes with spontaneous calcium activity was reduced in a dose-dependent manner for concentrations of 2 to 300 μM (60% to 100 μM reduction) (see FIG. 5D). In addition, when cultures of DMD myotubes were preincubated with NAADP at 100 μM, the number of myotubes with spontaneous calcium activity was reduced (75% reduction with 100 μM NAADP) (see FIG. 8D).

[1] = DMD myotubes, vs untreated DMD myotubes (FIG. 5C)

COc1ccc([C@H]2N[C@H](C(=O)O)Cc3c2[nH]c2ccccc32)cc1CN1CCN(c2ccccc2F)CC1 [NED-19, (1R, 3S)-1-[3-[[4-(2-fluorophenyl)piperazin-1-yl]methyl]-4-methoxyphenyl]-2,3,4,9-tetrahydro-1H-pyrido[3,4-b]indole-3-carboxylic acid]
reduction in spontaneous calcium wave activity (mdx mouse cardiomyocytes; mdx mouse cardiomyocytes (FIG. 4C)): about 90%
number of cardiomyocytes exhibiting spontaneous calcium activity (mdx mouse cardiomyocytes; mdx mouse cardiomyocytes incubated with compound (not shown)): significant reduction
frequency of spontaneous calcium waves (mdx mouse cardiomyocytes; mdx mouse cardiomyocytes, rare cases of spontaneous activity in presence of compound (FIG. 4C)): greatly reduced
reduction in the number of myotubes with spontaneous calcium activity (DMD myotubes): 60%
reduction in the amplitude of the calcium waves (oscillations) (DMD myotubes; [1]): 40%
percentage of cells with spontaneous calcium activity (DMD myotubes; DMD myotubes, 2-300 μM (FIG. 5D)): strongly reduced dose-dependently

N=c1c2nc(Br)n3c2ncn1[C@H]1O[C@H](COP(=O)(O)OP(=O)(O)OC[C@H]2O[C@@H]3C(O)C2O)C(O)C1O (some centres unmarked) [8-Bromo-cADPR, 8-bromo adenosine diphosphate cyclic ribose]
reduction in the amplitude of the calcium waves (oscillations) (DMD myotubes; [1]): 40%

Nc1ncnc2c1ncn2[C@@H]1O[C@H](COP(=O)(O)OP(=O)(O)OC[C@H]2O[C@@H]([n+]3cccc(C(=O)[O-])c3)[C@H](O)[C@@H]2O)[C@@H](O)[C@H]1OP(=O)(O)O [NAADP, nicotinic acid adenine dinucleotide phosphate]
reduction in the number of myotubes with spontaneous calcium activity (DMD myotubes): 75%
percentage of cells exhibiting spontaneous calcium activity (DMD myotubes; DMD myotubes treated 30 min, 100 μM (FIG. 8D)): greatly reduced
amplitude of the spontaneous calcium oscillations (DMD myotubes; DMD myotubes treated 30 min, 100 μM (FIG. 8E)): strongly reduced

CCCCOP(=O)(O)OC[C@@H]1O[C@H]([n+]2cccc(C(N)=O)c2)C(F)C1O (stereo partly drawn) [CZ-27, 2′-deoxy-2′-fluoro-β-nicotinamide arabinofuranoside-5′-(n-butyl) phosphate]
frequency of spontaneous calcium spikes (mdx mouse cardiomyocytes; mdx mouse cardiomyocytes (FIG. 4B)): reduction in spikes frequency
reduction of the frequency of spontaneous calcium spikes (mdx mouse cardiomyocytes; mdx mouse cardiomyocytes, application of the compound (FIG. 4B)): about 70%
amplitude of spontaneous calcium oscillations (DMD myotubes; DMD myotubes (FIG. 5C)): strongly reduces
reduction in the amplitude of the calcium waves, dose-dependent (DMD myotubes; DMD myotubes preincubated with 10, 50 and 100 μM, vs untreated DMD myotubes (FIG. 5C)): up to 80%
